Reference: US20070219275A1, “Use of Benzophenone Uv Filters for Preventing Tanning” (priority 2004, published 2007)

Tested on: skin pigmentation on the back of Asian volunteers
Test: Tanning prevention: skin color (L*a*b*, Minolta chromameter) on the back of volunteers irradiated with simulated solar light
Format: in vivo, human
Details: day cream with 5% compound
Procedure: Skin color was measured in the L*a*b* colour by means of a Minolta CM-508i®) Chromameter).
10 Volunteers of originating from S-E-Asia and with a skinlightness L* between 65.4 and 40.8 were recruited following COLIPA-Guidelines.
The influence of extensive sun exposure on skin pigmentation and the protective effects of day care cosmetics were directly measured on the back of volunteers:
40 and 20 minutes prior to irradiation volunteers treated on the back with 2 mg/cm^2 of cream formulation.
Then tey were irradiated with simulated solar light for 12 weeks, 3-times a week with a dose≦1 MED (Minimal erythema dose; MED adjusted monthly).
The skin of the volunteers was assessed prior to the test and monthly prior to cream application and irradiation.
The influence of extensive sun exposure on skin pigmentation and the protective effects of a day cream containing
was directly measured on the back of Asian volunteers.
The skin of the volunteers was assessed prior to the test and monthly prior to cream application and irradiation for skin color by a Minolta Colorimeter 508i.

[1] = After 4 weeks, irradiation 3x/week <1 MED
[2] = After 8 weeks, irradiation 3x/week <1 MED
[3] = After 12 weeks, irradiation 3x/week <1 MED
[4] = Start, 2 mg/cm^2, 10 Asian volunteers

Structure (SMILES): CCCCCCOC(=O)c1ccccc1C(=O)c1ccc(N(CC)CC)cc1O [compound of formula (3)]
- L* (skin color) [1]: 50.5
- a* (skin color) [1]: 23.1
- b* (skin color) [1]: 22.6
- L* (skin color) [2]: 48.8
- a* (skin color) [2]: 22.6
- b* (skin color) [2]: 23.3
- L* (skin color) [3]: 47.7
- a* (skin color) [3]: 21.5
- b* (skin color) [3]: 24.6
- L* (skin color) [4]: 53.3
- a* (skin color) [4]: 22.5
- b* (skin color) [4]: 22.5
